Test results from patent publication US20210253568A1, “AZAINDOLE DERIVATIVES AS RHO-KINASE INHIBITORS” (CHIESI FARMACEUTICI S.p.A., priority 2018, published 2021).

Experiments:
ROCK 2 = ROCK 2 (Homo sapiens, UniProt O75116); assay: In vitro Rho kinase inhibitory activity assay (ADP-Glo), Rho kinase 2; format: biochemical; settings: Ki by Cheng-Prusoff from IC50; 10 μM ATP, 25° C., expressed as range of activity
ROCK 1 = ROCK 1 (Homo sapiens, UniProt Q13464); assay: In vitro Rho kinase inhibitory activity assay (ADP-Glo), Rho kinase 1; format: biochemical; settings: Ki by Cheng-Prusoff from IC50; 10 μM ATP, 25° C., expressed as range of activity
Sequence of ROCK 1 (Q13464 whole entry): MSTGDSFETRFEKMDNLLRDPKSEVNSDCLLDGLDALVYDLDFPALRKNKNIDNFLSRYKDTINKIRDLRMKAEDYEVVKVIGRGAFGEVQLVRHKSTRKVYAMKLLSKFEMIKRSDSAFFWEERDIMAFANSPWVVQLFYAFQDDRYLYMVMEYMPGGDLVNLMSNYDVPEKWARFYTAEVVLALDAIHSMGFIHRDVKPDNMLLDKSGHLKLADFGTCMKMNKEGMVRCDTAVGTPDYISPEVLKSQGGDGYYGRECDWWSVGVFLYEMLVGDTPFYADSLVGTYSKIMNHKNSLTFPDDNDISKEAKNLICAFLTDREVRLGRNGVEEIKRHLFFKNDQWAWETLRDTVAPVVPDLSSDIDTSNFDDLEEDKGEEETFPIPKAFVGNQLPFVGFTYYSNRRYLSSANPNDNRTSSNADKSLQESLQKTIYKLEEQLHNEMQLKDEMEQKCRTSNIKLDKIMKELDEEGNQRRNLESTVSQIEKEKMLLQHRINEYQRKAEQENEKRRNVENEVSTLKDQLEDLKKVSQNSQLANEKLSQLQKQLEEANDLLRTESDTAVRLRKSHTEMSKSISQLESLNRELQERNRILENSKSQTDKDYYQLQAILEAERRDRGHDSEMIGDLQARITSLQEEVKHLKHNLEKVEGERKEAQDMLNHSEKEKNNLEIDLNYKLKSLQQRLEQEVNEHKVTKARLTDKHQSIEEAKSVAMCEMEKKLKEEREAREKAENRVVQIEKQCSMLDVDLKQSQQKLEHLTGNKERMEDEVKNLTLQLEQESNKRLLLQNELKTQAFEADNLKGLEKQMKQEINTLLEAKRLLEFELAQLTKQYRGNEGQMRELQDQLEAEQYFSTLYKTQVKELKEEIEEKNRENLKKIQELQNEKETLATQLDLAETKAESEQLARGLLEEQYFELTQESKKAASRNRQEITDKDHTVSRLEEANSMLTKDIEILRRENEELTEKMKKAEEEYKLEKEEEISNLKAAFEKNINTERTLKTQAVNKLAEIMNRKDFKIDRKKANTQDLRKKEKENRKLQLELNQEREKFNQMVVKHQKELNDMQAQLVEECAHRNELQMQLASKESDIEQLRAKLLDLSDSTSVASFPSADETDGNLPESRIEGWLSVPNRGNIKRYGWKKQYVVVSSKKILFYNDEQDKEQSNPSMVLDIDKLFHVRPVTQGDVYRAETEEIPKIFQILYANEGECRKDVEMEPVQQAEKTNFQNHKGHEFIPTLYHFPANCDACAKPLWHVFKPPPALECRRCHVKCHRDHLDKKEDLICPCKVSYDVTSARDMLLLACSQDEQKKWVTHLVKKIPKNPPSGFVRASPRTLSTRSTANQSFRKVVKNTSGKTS

Sequence of ROCK 2 (O75116 whole entry): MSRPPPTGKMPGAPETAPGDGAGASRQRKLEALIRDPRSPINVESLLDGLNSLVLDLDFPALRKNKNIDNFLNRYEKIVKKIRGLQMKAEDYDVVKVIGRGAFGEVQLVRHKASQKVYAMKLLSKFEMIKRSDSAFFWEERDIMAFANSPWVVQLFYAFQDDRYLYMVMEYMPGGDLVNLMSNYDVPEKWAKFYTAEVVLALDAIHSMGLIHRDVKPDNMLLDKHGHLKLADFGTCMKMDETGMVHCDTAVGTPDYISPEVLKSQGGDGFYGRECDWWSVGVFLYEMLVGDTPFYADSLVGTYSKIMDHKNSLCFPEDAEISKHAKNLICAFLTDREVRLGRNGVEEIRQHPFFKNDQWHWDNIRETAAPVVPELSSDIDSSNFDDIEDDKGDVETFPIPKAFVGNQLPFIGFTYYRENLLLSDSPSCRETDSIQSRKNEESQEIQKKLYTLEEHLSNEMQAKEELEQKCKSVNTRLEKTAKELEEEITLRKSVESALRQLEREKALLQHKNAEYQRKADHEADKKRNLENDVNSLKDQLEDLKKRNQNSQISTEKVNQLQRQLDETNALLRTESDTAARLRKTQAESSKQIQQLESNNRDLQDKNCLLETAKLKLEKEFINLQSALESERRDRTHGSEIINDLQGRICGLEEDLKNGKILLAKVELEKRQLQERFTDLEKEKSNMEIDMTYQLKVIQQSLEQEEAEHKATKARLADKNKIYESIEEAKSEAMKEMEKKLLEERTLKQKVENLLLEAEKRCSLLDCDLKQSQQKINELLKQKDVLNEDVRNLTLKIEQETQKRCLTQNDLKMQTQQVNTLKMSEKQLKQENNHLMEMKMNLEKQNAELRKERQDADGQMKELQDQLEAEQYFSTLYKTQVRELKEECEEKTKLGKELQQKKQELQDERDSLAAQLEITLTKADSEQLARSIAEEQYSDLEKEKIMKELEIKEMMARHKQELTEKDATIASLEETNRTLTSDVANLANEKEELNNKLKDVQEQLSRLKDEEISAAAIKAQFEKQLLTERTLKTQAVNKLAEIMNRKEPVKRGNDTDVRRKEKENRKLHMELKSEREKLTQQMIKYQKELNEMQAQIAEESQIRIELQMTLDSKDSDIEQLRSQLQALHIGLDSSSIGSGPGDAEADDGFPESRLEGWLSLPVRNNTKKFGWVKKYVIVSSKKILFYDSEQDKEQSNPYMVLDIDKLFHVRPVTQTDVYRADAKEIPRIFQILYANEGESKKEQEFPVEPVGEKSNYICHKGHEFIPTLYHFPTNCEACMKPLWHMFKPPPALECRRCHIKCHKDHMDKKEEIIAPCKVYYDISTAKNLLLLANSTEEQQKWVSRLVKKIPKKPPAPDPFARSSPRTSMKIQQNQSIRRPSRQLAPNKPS

SMILES	Ki (ROCK 2) [nM]	Ki (ROCK 1) [nM]
C[C@H](Nc1cc(-c2c[nH]c3nccc(Oc4ccc5c(c4)CNCC5)c23)ncn1)c1ccccc1 [Example 54, (S)-N-(1-phenylethyl)-6-(4-((1,2,3,4-tetrahydroisoquinolin-7-yl)oxy)-1H-pyrrolo[2,3-b]pyridin-3-yl)pyrimidin-4-amine]	< 3	3 to 30
c1cncc(CCNc2cc(-c3c[nH]c4nccc(Oc5ccc6c(c5)CNCC6)c34)ncn2)c1 [Example 55, N-(2-(pyridin-3-yl)ethyl)-6-(4-((1,2,3,4-tetrahydroisoquinolin-7-yl)oxy)-1H-pyrrolo[2,3-b]pyridin-3-yl)pyrimidin-4-amine]	< 3	< 3
c1ccc(CNc2cc(-c3c[nH]c4ncnc(Oc5ccc6c(c5)CNCC6)c34)ccn2)cc1 [Example 56, N-benzyl-4-(4-((1,2,3,4-tetrahydroisoquinolin-7-yl)oxy)-7H-pyrrolo[2,3-d]pyrimidin-5-yl)pyridin-2-amine]	< 3	3 to 30
